Test results published in PMC9127750, “Structure-based design of CDC42 effector interaction inhibitors for the treatment of cancer” (Cell reports, 2022).
“And” between values parts separate entries of the source, which are not always exact repeats. Identical values can stand only once.

Tested on: WM3248 melanoma cells, 486 antibodies
Assay: Reverse phase protein arrays (RPPA)
Format: cell-based, Human
Excerpt: Pellets were snap frozen in liquid nitrogen and shipped to MD Anderson Cancer Center core RPPA facility for RPPA analysis (Table S5). Three biological replicates for each sample were generated.
Nomenclatures on the RPPA heatmaps: name_of_antibody.species_of_antibody.status_of_antibody. V - antibody validated; C - validation of antibody in progress; Q - antibody nonspecific; E – under evaluation; antibodies raised in M - mouse, G - goat, R - rabbit, or T - rat.

[1] = level 20 normalized to 0, mean of 3
[2] = level 20 normalized to 0, single replicates

CN(C)c1cccc(Nc2cc(-c3ccccc3)nc(C3CCNCC3)n2)c1 [ARN22089, N1,N1-dimethyl-N3-(6-phenyl-2-(piperidin-4-yl)pyrimidin-4-yl)benzene-1,3-diamine]
MEK1_pS217_S221.R.V Norm_10 (level 10 vs 0, replicates): 0.653 and 1.014 | MEK2.R.V Norm_10 (level 10 vs 0, replicates): 0.958 | MERIT40.R.C Norm_10 (level 10 vs 0, replicates): 0.835 and 0.967 and 1.096 | MERIT40_pS29.R.V Norm_10 (level 10 vs 0, replicates): 1.054 and 0.952 and 1.159 | METTL3.R.V Norm_10 (level 10 vs 0, replicates): 0.943 and 1.355 and 1.161 | MIF.R.C Norm_10 (level 10 vs 0, replicates): 0.886 and 1.129 and 0.994 | MIG6.R.V Norm_10 (level 10 vs 0, replicates): 0.854 and 1.033 and 0.924 | MITF.R.V Norm_10 (level 10 vs 0, replicates): 1.203 and 1.053 | MLH1.M.V Norm_10 (level 10 vs 0, replicates): 0.862 and 0.921 and 1.113 | MLKL.R.V Norm_10 (level 10 vs 0, replicates): 0.834 and 0.796 | MMP2.R.V Norm_10 (level 10 vs 0, replicates): 0.901 and 0.975 and 0.933 | MMP14.R.V Norm_10 (level 10 vs 0, replicates): 1.370 and 1.223 and 1.159 | MR1.M.C Norm_10 (level 10 vs 0, replicates): 0.964 and 0.975 | MRAP.R.C Norm_10 (level 10 vs 0, replicates): 1.105 and 1.029 and 0.983 | MSH2.R.C Norm_10 (level 10 vs 0, replicates): 0.935 and 1.122 | MSH6.R.C Norm_10 (level 10 vs 0, replicates): 1.082 and 1.155 | MSI2.R.C Norm_10 (level 10 vs 0, replicates): 1.122 and 1.158 and 0.948 | MTCO1.M.V Norm_10 (level 10 vs 0, replicates): 0.961 and 1.134 and 1.079 | MTSS1.M.C Norm_10 (level 10 vs 0, replicates): 0.883 and 1.065 | Mcl.1.R.V Norm_10 (level 10 vs 0, replicates): 0.859 and 0.752 and 0.834 | MelanA.R.C Norm_10 (level 10 vs 0, replicates): 0.771 and 0.904 and 1.047 | Melanoma.gp100.R.C Norm_10 (level 10 vs 0, replicates): 0.993 and 0.873 and 0.988 | Merlin.R.C Norm_10 (level 10 vs 0, replicates): 1.228 and 1.105 | Midkine.R.V Norm_10 (level 10 vs 0, replicates): 0.894 and 0.939 and 0.959 | Mitofusin.1.R.V Norm_10 (level 10 vs 0, replicates): 0.986 and 0.948 and 0.964 | Mitofusin.2.R.V Norm_10 (level 10 vs 0, replicates): 0.858 and 0.863 and 1.224 | Mnk1.R.V Norm_10 (level 10 vs 0, replicates): 0.920 and 0.841 and 0.963 | mTOR.R.V Norm_10 (level 10 vs 0, replicates): 0.942 and 0.902 and 1.003 | mTOR_pS2448.R.C Norm_10 (level 10 vs 0, replicates): 1.029 and 0.921 and 1.128 | TSC1.R.C Norm_20 Average [1]: 0.903 | TTF1.R.V Norm_20 Average [1]: 1.162 | TUFM.R.V Norm_20 Average [1]: 0.835 | Tuberin.R.V Norm_20 Average [1]: 1.019 | Tuberin_pT1462.R.V Norm_20 Average [1]: 1.096 | Twist.M.C Norm_20 Average [1]: 0.916 | Tyro3.R.V Norm_20 Average [1]: 1.270 | U.Histone.H2B.R.C Norm_20 Average [1]: 2.670 | UBQLN4.M.C Norm_20 Average [1]: 0.936 | UGT1A.M.V Norm_20 Average [1]: 0.975 | ULK1_pS757.R.C Norm_20 Average [1]: 0.888 | UVRAG.R.C Norm_20 Average [1]: 1.003 | VASP.R.V Norm_20 Average [1]: 0.936 | VAV1.R.C Norm_20 Average [1]: 1.004 | VEGFR.2.R.V Norm_20 Average [1]: 0.966 | VEGFR.2_pY1175.R.C Norm_20 Average [1]: 0.978 | VHL.EPPK1.M.C Norm_20 Average [1]: 0.882 | VHL.R.C Norm_20 Average [1]: 0.906 | Vinculin.M.V Norm_20 Average [1]: 0.932 | WIPI1.R.C Norm_20 Average [1]: 1.388 | WIPI2.R.C Norm_20 Average [1]: 1.126 | WTAP.R.V Norm_20 Average [1]: 1.278 | Wee1.R.C Norm_20 Average [1]: 0.913 | Wee1_pS642.R.C Norm_20 Average [1]: 0.939 | XIAP.R.C Norm_20 Average [1]: 0.959 | XPA.M.V Norm_20 Average [1]: 0.905 | XPF.R.C Norm_20 Average [1]: 0.890 | YAP.R.C Norm_20 Average [1]: 0.956 | YAP_pS127.R.V Norm_20 Average [1]: 1.018 | YB1_pS102.R.V Norm_20 Average [1]: 0.999 | YES1.R.V Norm_20 Average [1]: 0.970 | YTHDF2.R.V Norm_20 Average [1]: 1.210 | YTHDF3.R.C Norm_20 Average [1]: 1.032 | ZAP.70.R.V Norm_20 Average [1]: 0.888 | ZEB1.R.V Norm_20 Average [1]: 0.961 | TSC1.R.C Norm_20_1 to Norm_20_3 [2]: 1.029 and 0.819 and 0.861 | TTF1.R.V Norm_20_1 to Norm_20_3 [2]: 1.129 and 1.026 and 1.331 | TUFM.R.V Norm_20_1 to Norm_20_3 [2]: 0.786 and 0.994 and 0.727 | Tuberin.R.V Norm_20_1 to Norm_20_3 [2]: 0.859 and 0.737 and 1.461 | Tuberin_pT1462.R.V Norm_20_1 to Norm_20_3 [2]: 1.032 and 1.164 | Twist.M.C Norm_20_1 to Norm_20_3 [2]: 0.837 and 0.972 | Tyro3.R.V Norm_20_1 to Norm_20_3 [2]: 1.252 and 1.345 and 1.211 | U.Histone.H2B.R.C Norm_20_1 to Norm_20_3 [2]: 1.699 and 5.734 and 0.577 | UBAC1.R.V Norm_20_1 to Norm_20_3 [2]: 1.032 and 1.010 and 1.218 | UBQLN4.M.C Norm_20_1 to Norm_20_3 [2]: 0.990 and 0.917 and 0.902 | UGT1A.M.V Norm_20_1 to Norm_20_3 [2]: 0.904 and 1.048 and 0.973 | ULK1_pS757.R.C Norm_20_1 to Norm_20_3 [2]: 0.939 and 0.770 and 0.955 | UQCRC2.M.C Norm_20_1 to Norm_20_3 [2]: 0.954 and 1.047 and 1.204 | UVRAG.R.C Norm_20_1 to Norm_20_3 [2]: 1.021 and 1.000 and 0.987 | VASP.R.V Norm_20_1 to Norm_20_3 [2]: 0.965 and 0.910 and 0.933 | VAV1.R.C Norm_20_1 to Norm_20_3 [2]: 1.081 and 0.961 and 0.970 | VEGFR.2.R.V Norm_20_1 to Norm_20_3 [2]: 0.959 and 0.914 and 1.026 | VEGFR.2_pY1175.R.C Norm_20_1 to Norm_20_3 [2]: 0.916 and 1.050 and 0.968
